Key:
DPAGT1 = target: T1, DPAGT1 (Homo sapiens, UniProt Q9H3H5); assay: Heat-induced denaturation assay of DPAGT1 with bound ligand; type: binding
T1 sequence (Q9H3H5 1-408): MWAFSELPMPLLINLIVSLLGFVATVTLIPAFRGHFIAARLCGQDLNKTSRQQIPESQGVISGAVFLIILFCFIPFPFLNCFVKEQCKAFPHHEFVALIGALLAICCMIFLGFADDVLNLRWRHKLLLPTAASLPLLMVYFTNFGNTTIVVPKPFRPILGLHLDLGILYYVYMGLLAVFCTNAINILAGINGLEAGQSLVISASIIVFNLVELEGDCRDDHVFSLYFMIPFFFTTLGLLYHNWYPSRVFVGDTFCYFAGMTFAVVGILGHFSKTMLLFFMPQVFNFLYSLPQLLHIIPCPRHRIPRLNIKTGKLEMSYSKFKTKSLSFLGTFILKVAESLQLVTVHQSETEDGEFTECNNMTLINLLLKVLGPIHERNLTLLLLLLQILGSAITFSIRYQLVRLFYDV
Description: The structure of DPAGT1 in complex with the archetypal scaffold natural product tunicamycin[21] […] Trp122 moves so as to use its indole moiety to hydrophobically provide a binding “cap” or “lid” over the proximal portion of the 10′-N lipid chain.

HEK293 cells = assay: HEK-CellCount readout (stained nuclei of live cells, internal cytotoxicity measure); type: cell-based, human
Procedure: Here, the nuclear localization of the transcription factor ATF4 (which leads to subsequent expression of CHOP and cell death) was used as a phenotypic marker of ER stress (Figure 3A). Use of multi(384)-well plate format allowed wild-type HEK cells to be treated with analogues over a titrating concentration range of 0.5 nM to […] for 6 h in a quantitative manner (Figure 3C). After fixation with paraformaldehyde, high-content cellular fluorescence microscopy imaging was used to both determine the site and quantify the location of ATF4[32] (Figure 3B,C). […] In this way, confocal fluorescence microscopy at excitation wavelengths of 405 and 488 nm produced, as a direct primary readout, the intensity of ATF4 located in the nucleus as well as the ratio of ATF4 located between the nucleus (colocalized with Hoechst) and cytoplasm (see Figure 3B,C for representative images and the Supporting Information for channel-by-channel images). Concurrent readout of the number of stained nuclei (Hoechst nuclei stain) in live cells was also used as an internal cytotoxicity measure. This high-content method allowed detailed quantitative cellular dose responses to be determined with precision (Figure 3D). […]
Figure 3 High-content phenotypic screen for putative ER stress inducers. […] Plates were imaged using an OPERA-Phenix high-content imaging platform with fluorescence excitation at 405 and 488 nm. […]

Substance: tunicamycin [reference compound]
- Tm,1/2 of DPAGT1 bound to ligand (DPAGT1; heat-induced denaturation, DPAGT1 alone 51.7 ± 0.2 °C): 83.0 ± 0.4 °C
- ΔTm,1/2 of DPAGT1 (DPAGT1; versus DPAGT1 alone): 31.3 °C
- cell death (in words) (HEK293 cells): causing cell death
- EC50 (HEK293 cells; 6 h, live cell nuclei count, read-out: EC50, cell death): ~10 µM

Reference: paper PMC11758266, “Lipid-Modulated, Graduated Inhibition of N-Glycosylation Pathway Priming Suggests Wide Tolerance of ER Proteostasis to Stress” (ACS Central Science, 2024)
